Measured values published in paper PMC5000470, “Optimization of extraction parameters of PTP1β (protein tyrosine phosphatase 1β), inhibitory polyphenols, and anthocyanins from Zea mays L. using response surface methodology (RSM)” (BMC Complementary and Alternative Medicine, 2016).
Read-outs that look alike come from different tables or passages of the source.

Legend:
[1] = molecular target: T1, PTP1β (human, recombinant) (Homo sapiens, UniProt P18031); assay: PTP1β inhibitory activity assay (pNPP substrate); assay type: biochemical; conditions: for inhibition at 10 µg/mL: concentration 10 μg/mL; for inhibition at 50 µg/mL: concentration 50 μg/mL; for inhibition at 25 µg/mL: concentration 25 μg/mL
T1 construct: purchased BIOMOL International LP (Plymouth Meeting, PA)
T1 sequence (P18031 1-435): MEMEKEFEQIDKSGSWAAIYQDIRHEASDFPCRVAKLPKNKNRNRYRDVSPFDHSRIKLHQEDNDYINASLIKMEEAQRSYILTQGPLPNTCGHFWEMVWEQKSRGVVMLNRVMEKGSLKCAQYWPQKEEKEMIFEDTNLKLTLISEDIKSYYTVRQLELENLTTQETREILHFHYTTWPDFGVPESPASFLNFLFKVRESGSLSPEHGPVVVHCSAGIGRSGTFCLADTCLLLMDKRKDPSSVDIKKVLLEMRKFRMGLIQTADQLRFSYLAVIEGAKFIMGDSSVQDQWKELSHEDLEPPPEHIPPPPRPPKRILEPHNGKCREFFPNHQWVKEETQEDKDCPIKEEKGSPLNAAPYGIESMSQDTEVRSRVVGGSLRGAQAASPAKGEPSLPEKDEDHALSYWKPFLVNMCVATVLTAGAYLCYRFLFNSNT
Description: A PTP1β (human, recombinant) drug discovery kit was purchased from BIOMOL® International LP (Plymouth meeting, PA). Enzymatic activity was measured using pNPP, as described previously. To each of the 96-wells in a microtiter plate (final volume: 100 μL) was added 2 mM pNPP and PTP1β (0.05-0.1 ng/well) in a buffer containing 50 mM citrate (pH 6.0), 0.1 M sodium chloride, 1 mM EDTA, and 1 mM dithiothreitol, with or without test compounds. Following incubation at 37 °C for 30 min, the reaction was terminated with 10 M sodium hydroxide.
All calculations and analyses were performed using statistical analysis system (SAS, SAS Institude Inc., NC, USA, version 9.1) software and Sigma plot (Systat Software Inc., USA, version 11). Inhibition rates were calculated as percentages (%) with respect to the control value and IC50 value was estimated from the least-squares regression line of the logarithmic concentration plotted against inhibitory activity.

[2] = tested on: human recombinant aldose reductase; design: method as in PMID 23586057; conditions: cited from earlier work
[3] = tested on: rat lenses aldose reductase; design: method as in PMID 23586057; conditions: cited from earlier work
[4] = molecular target: T1, PTP1β (human, recombinant); assay: Kinetics of PTP1β inhibition (Lineweaver-Burk plots, pNPP substrate); assay type: biochemical; design: dose or concentration left out as unconfirmed
Description: […] The initial rate was determined on the basis of the rate of increase in absorbance at 405 nm. The Michaelis-Menten constant (Km) and maximal velocity (Vmax) of PTP1β were determined by Lineweaver-Burk Plot analysis for competitive inhibition, and the intercept on the vertical axis for noncompetitive inhibition.
A kinetic analysis of PTP1β inhibition by compounds 7 and 11 using Lineweaver-Burk plots of 1/velocity and 1/concentration of substrate is shown in Fig. 2. […] However, compound 7 yielded a noncompetitive inhibition pattern against PTP1β. […] These compounds may be potential lead compounds for further development as a functional food source for the prevention of diabetes.

[5] = Table 2, isolated compounds, mean of 3 duplication analyses, read-out: IC50 (μg/ml) (converted)
[6] = Table 2, concentration 100 μg/mL, read-out: Inhibition (%)
[7] = isolated compounds, read-out: IC50

Structure (SMILES)	IC50 [1, 5] [µM]	inhibition at 10 µg/mL ([1]; Table 2) [%]	inhibition at 50 µg/mL ([1]; Table 2) [%]	inhibition at 100 µg/mL [1, 6] [%]	IC50 [1, 7] [µM]	other results
O=C(O)c1ccc(O)c(O)c1 [compound 1, protocatechuic acid]	–	–	–	–	–	inhibition at 100 µg/mL [1]: < 50%
COc1cc(/C=C/C(=O)O)ccc1O [compound 5, ferulic acid]	185	28.3	64.5	96.1	185	–
Cc1ccc(C(=O)Nc2ccc(S(=O)(=O)O)c3cc(S(=O)(=O)O)cc(S(=O)(=O)O)c23)cc1NC(=O)c1cccc(NC(=O)Nc2cccc(C(=O)Nc3cc(C(=O)Nc4ccc(S(=O)(=O)O)c5cc(S(=O)(=O)O)cc(S(=O)(=O)O)c45)ccc3C)c2)c1 [Suramin, suramin, reference compound]	–	–	–	–	–	inhibition at 3.21 µg/mL ([1]; Table 1, concentration 3.21 μg/mL): 10.7%; inhibition at 6.49 µg/mL ([1]; Table 1, concentration 6.49 μg/mL): 40.6%; inhibition at 12.97 µg/mL ([1]; Table 1, concentration 12.97 μg/mL): 61.9%; inhibition at 1 µg/mL ([1]; Table 2, concentration 1 μg/mL): 10.7%; inhibition at 2.5 µg/mL ([1]; Table 2, concentration 2.5 μg/mL): 46.5%; inhibition at 5 µg/mL ([1]; Table 2, concentration 5 μg/mL): 64.3%
O=C(O)/C=C/c1ccc(O)cc1 [compound 4, p-4-hydroxycinnamic acid]	–	–	–	< 50	–	–
O=c1c(O[C@@H]2O[C@H](CO)[C@@H](O)[C@H](O)[C@H]2O)c(-c2ccc(O)c(O)c2)oc2cc(O)cc(O)c12 [compound 6, hirsutrin]	–	–	–	< 50	–	inhibitory activity on human recombinant aldose reductase [2]: significant inhibitory activities; inhibitory activity on rat lenses aldose reductase [3]: significant inhibitory activities
O=C(O)c1c(O)cc(O)cc1O [compound 3, 2,4,6-trihydroxy benzoic acid]	–	–	–	< 50	–	–
COc1cc(C(=O)O)ccc1O [compound 2, vanillic acid]	–	–	–	< 50	–	–

Further lines, with some results ahead:

IC50 [1, 5] [µM]	inhibition at 10 µg/mL ([1]; Table 2) [%]	inhibition at 50 µg/mL ([1]; Table 2) [%]	inhibition at 100 µg/mL [1, 6] [%]	IC50 [1, 7] [µM]	Structure (SMILES)	other results
64	15	85.9	–	64	COc1cc(-c2oc3cc(O)cc(O)c3c(=O)c2O[C@@H]2O[C@H](CO)[C@@H](O)[C@H](O)[C@H]2O)ccc1O [compound 7, 3′-methoxyhirsutrin]	inhibitory activity on human recombinant aldose reductase [2]: significant inhibitory activities; inhibition at 25 µg/mL ([1]; Table 2): 36.8%; inhibitory activity on rat lenses aldose reductase [3]: significant inhibitory activities; type of inhibition of PTP1β [4]: noncompetitive
–	–	–	< 50	–	OC[C@H]1O[C@@H](Oc2cc3c(O)cc(O)cc3[o+]c2-c2ccc(O)c(O)c2)[C@H](O)[C@@H](O)[C@@H]1O [compound 8, cyanidin-3-glucoside]	–
54.1	18.5	91.7	–	54.1	O=C(O)CC(=O)OC[C@H]1O[C@@H](Oc2cc3c(O)cc(O)cc3[o+]c2-c2ccc(O)c(O)c2)[C@H](O)[C@@H](O)[C@@H]1O [compound 11, cyanidin-3-(6”-malonylglucoside)]	inhibitory activity on human recombinant aldose reductase [2]: significant inhibitory activities; inhibition at 25 µg/mL ([1]; Table 2): 36.2%; inhibitory activity on rat lenses aldose reductase [3]: significant inhibitory activities; type of inhibition of PTP1β [4]: mixed
–	–	–	< 50	–	COc1cc(-c2[o+]c3cc(O)cc(O)c3cc2O[C@@H]2O[C@H](CO)[C@@H](O)[C@H](O)[C@H]2O)ccc1O [compound 10, peonidin-3-glucoside]	–
211	1.09	13.3	55	211	OC[C@H]1O[C@@H](Oc2cc3c(O)cc(O)cc3[o+]c2-c2ccc(O)cc2)[C@H](O)[C@@H](O)[C@@H]1O [compound 9, pelargonidin-3-glucoside]	–
